These results are taken from patent US20260183225A1, “PHARMACEUTICAL COMPOSITION FOR TOPICAL ADMINISTRATION COMPRISING A VOLATILE ANAESTHETIC” (LABORATORIOS GEBRO PHARMA, S.A., priority 2022, published 2026).

Data set [1] has as its system sciatic nerve ligation or chronic constriction injury (CCI) model. As to the kind of experiment: von Frey filament test (mechanical allodynia), CCI model, subcutaneous injection. The data set is classed as in vivo, rat. As to the method: (§1) Male Wistar rats with a body weight between 250 and 300 g were kept in standard laboratory conditions (12 h light/dark cycles, temperature 21° C.). Four groups were formed and treated once a day with a composition comprising an active ingredient: • Group 1 was administered 10% of LGP10-16. • Group 2 was administered 25% of LGP10-16. • Group 3 was administered 100% of LGP10-16. • A control group 4 was administered saline solution. Each group consisted of 15 rats.
The sciatic nerve ligation or chronic constriction injury (CCI) model for as described by Bennett and Xie was used. The sciatic nerve ligation model generates a peripheral nerve injury that causes the appearance of mechanical and thermal hyperalgesia, mechanical allodynia and sometimes signs of spontaneous pain can be observed, by the spontaneous 5 elevation of the paw. All these symptoms appear one week after nerve ligation and can last more than two months. The added value of the model is that each animal can be its own control, since the contralateral paw, not being injured, reflects normal values. […]

The next data set concerns mouse vas deferens. The data set can be described thus: mouse vas deferens preparation, inhibition of contractile activity. As to the method:
In a second step, the effect of different concentrations of LGP10-16 on preparations of mouse vas deferens and guinea-pig ileum LMMP was studied.
After adding a concentration of the drug to the organ bath, it is left for 9 minutes to test its effect, after which the preparation is washed. At the end of the first concentration-response curve (left bars), it is left for 90 mins and the second curve is created (right bars).

The test system of a further data set is Male Wistar rats. As to the kind of experiment: healing and local tolerability after subcutaneous injection in CCI rats. The data set is classed as in vivo, rat. The method, then:
as §1

The subject of the next data set is guinea-pig ileum LMMP. As to the kind of experiment: guinea-pig ileum LMMP preparation, inhibition of contractile activity. The source says: In a second step, the effect of different concentrations of LGP10-16 on preparations of mouse vas deferens and guinea-pig ileum LMMP was studied. […] In the case of this preparation, after washing, the curve has the same appearance, and the LGP10-16 activity is the same in both curves. To further investigate these differences, the battery of guinea-pig ileum experiments was repeated, this time without washing between the two curves, to see if the effect changed in any way. […] This is a clear synergic effect, as a result of the continued presence of LGP10-16 in the bath.

In data set [2] the test system is sciatic nerve ligation or chronic constriction injury (CCI) model. As to the kind of experiment: rodent pincher test (mechanical hyperalgesia), CCI model, subcutaneous injection. The conditions noted are these: s.c. once a day; 10%, 25% and 100% LGP10-16. Type of data set: in vivo, rat. The method, then: as §1
The sciatic nerve ligation or chronic constriction injury (CCI) model for as described by Bennett and Xie was used. The sciatic nerve ligation model generates a peripheral nerve injury that causes the appearance of mechanical and thermal hyperalgesia, mechanical allodynia and sometimes signs of spontaneous pain can be observed, by the spontaneous 5 elevation of the paw. All these symptoms appear one week after nerve ligation and can last more than two months. The added value of the model is that each animal can be its own control, since the contralateral paw, not being injured, reflects normal values.
Mechanical hyperalgesia was tested in the rodent pincher test. The rodent pincher algometer allows calibrated forceps to induce quantifiable mechanical stimulation in the animal. The pressure is applied in the “inter-digital” region. […]

The next data set deals with A delta nerve fibres. The data set can be described thus: isolated nerve fibre model (electrophysiology of A delta fibres). As to the method:
In a first step, an isolated nerve fibre model was used and the effect of a 25% dilution (nutrient solution) of LGP10-16 on the different electrophysiological variables of the A delta nerve fibres was evaluated. The stimulated fibres from the A delta type correspond to nociceptive sensory fibres. 250 μl of LGP10-16 and 750 μl of nutrient solution were used in this test.

Data set [3] relates to sciatic nerve ligation or chronic constriction injury (CCI) model. As to the kind of experiment: conditioned place preference (CPP) test, spontaneous pain, CCI model. The data set is classed as in vivo, rat. The conditions noted are these: LGP10-16 25%; day 14 and day 21. The source says:
The conditioned place preference (CPP) test assesses emotional responses; it is based on the evaluation of an associated learning behaviour in response to a new aversive environment. The CPP apparatus (70×30×30 cm) is divided into 3 compartments: two test compartments of identical dimensions and a third one considered as a neutral zone, which is narrower. The two test compartments have different visual and tactile characteristics (colour and texture of the walls and floor), so that the animal can differentiate them well and can be isolated by movable doors, so that communication between the three compartments can be allowed or blocked. On the pre-conditioning day, the animal was allowed to roam freely in the three compartments for 30 min, and the time spent in each compartment was measured ([…] that spend more than 60% in one compartment were excluded).
On conditioning days, animals were administered the drug and confined for 15 min in one of the test compartments (always in the same compartment) in order to associate the drug administration to that area. This conditioning procedure was repeated for each administration of the drug. […] The CPP value is expressed as the difference between the […]. […]

Where [4] appears, read: maximum concentration 25%, second curve.

By inhibition is commonly meant the percentage by which the read-out fell short of the control.

`FCOC(C(F)(F)F)C(F)(F)F` [LGP10-16, Sevoflurane]: the “difference with respect to the control (von Frey)” value in data set [1] (from the first run at day 7, all doses (10%, 25%, 100%)) is recorded as “statistically significant differences”. The “antiallodynic effect (von Frey)” value in data set [1] (s.c. once a day, 10%, 25% and 100% LGP10-16) was “dose- and time-dependent antiallodynic effect”. Also, the “recovery of contractile capacity after washing after the first curve” value with mouse vas deferens (25%, washed after first curve) is given as “around 75%”; with guinea-pig ileum LMMP (25%, washed after first curve), 100%. Besides, the Emax with mouse vas deferens (Mus musculus, 25%, washed after second curve, read-out: contractile activity after washing after the second curve, of maximum response) worked out at 50%. The “persistence of the effect after washing” value with mouse vas deferens (after changing the nutrient solution) is given as “maintained even 90 minutes after washing the preparation”. Moreover, the “inhibition of the contractile response” value with mouse vas deferens (concentrations from 1% to 25% added to the bath, 9 minutes) was “concentration-dependent inhibition”. Further, the “inhibition at the end of the first curve” value in the data set with mouse vas deferens (maximum concentration 25%) is on record as 55%; in the data set with guinea-pig ileum LMMP (increasing concentrations 1% to 25%, maximum 25%), 100%. Besides, the “inhibition at the end of the second curve” value in the data set on mouse vas deferens (setting [4]) came to 85%; with guinea-pig ileum LMMP (setting [4]), 100%. The effect on healing entry with Male Wistar rats (concentrations of 10% and 25%, s.c.) is listed as “not negatively affected”. Also, in the data set on Male Wistar rats (group 3, 100% LGP10-16, s.c.), the local adverse findings result was “skin irritation and blistering”. Besides, the “side effects in animal models” value with Male Wistar rats (summary statement) is listed as “no relevant side effects”. The “effect when the preparation was not washed between the two curves” value in the data set on guinea-pig ileum LMMP (1% to 25%, without washing, more inhibitory at intermediate doses) was “somewhat greater”. For the same compound, the “recovery of function after washing after the second curve” value with guinea-pig ileum LMMP (25%, washed after second curve) amounted to 100%. Moreover, in the data set with guinea-pig ileum LMMP (concentration of 10% and 25%), the “inhibition of functional activity” value is listed as “complete (and reversible) inhibition”. The “antihyperalgesic effect (rodent pincher)” value in data set [2] is “dose and time-dependent”. Further, in the data set on A delta nerve fibres (25% dilution), the “reversibility of the effect” value is listed as “reversible”. In addition, the “effect on nerve fibre firing capacity” value in the data set on A delta nerve fibres (25% dilution in nutrient solution, increasing pressure stimulus) is reported as “inhibition of the nerve fibre firing capacity”. Also, in the data set on A delta nerve fibres (25% dilution, maintained after washing the fibre), the “duration of the effect after a single application” value was “up to 90 minutes”. Besides, in the data set with A delta nerve fibres (25% solution), the “effect level reached with a 25% solution” value was “maximum effect was reached”. Moreover, in data set [3], the “time spent in the compartment associated with drug administration (CPP)” value is “spent more time in the room associated with drug administration”.
